According to US20240174690A1, “ANNULATED 2-AMINO-3-CYANO THIOPHENES AND DERIVATIVES FOR THE TREATMENT OF CANCER” (BOEHRINGER INGELHEIM INTERNATIONAL GMBH, priority 2021, published 2024):

Key:
KRAS (G12C)::SOS1 = KRAS (G12C)::SOS1 (Homo sapiens (Human), UniProt P01116, C118S/C51S/C80L/G12C); test: KRAS::SOS1 AlphaScreen binding assay, KRAS G12C
From the text: This assay can be used to examine the potency with which compounds according to the invention binding to (mutated) KRAS inhibit the protein-protein interaction between SOS1 and (mutated) KRAS e.g., KRAS WT, KRAS G12C, KRAS G12D, KRAS G12V, KRAS G13D. […] Low IC50 values in this assay setting are indicative of strong inhibition of protein-protein interaction between SOS1 and KRAS:
These assays measure the inhibitory effect of compounds on KRAS mutant protein-protein interactions using the Alpha Screen technology by Perkin Elmer.
The following (mutant) enzyme forms of KRAS and interacting proteins are used in these assays at the given concentrations: • KRAS (G12D) 1-169, N-terminal 6His-tag, C-terminal avi-tag (Xtal BioStructures, Inc.); final assay concentration 10 nM and SOS1 564-1049, N-terminal 229 GST-tag, TEV cleavage site (Viva Biotech Ltd); final assay concentration 5 nM; • KRAS (G12C) 1-169, N-terminal 6His-tag for purification, cleaved off, C-terminal avi-tag, biotinylated, mutations: C51S, C80L, C118S (in house); final assay concentration 7.5 nM and SOS1 564-1049, N-terminal 229 GST-tag, TEV cleavage site (Viva Biotech Ltd); final assay concentration 5 nM; • KRAS (G12V) 1-169, N-terminal 6His-tag for purification, cleaved off, C-terminal avi-tag, biotinylated, TEV cleavage site, mutation: C118S, GDP loaded (in house); final assay concentration 10 nM and SOS1 564-1049, N-terminal 229 GST-tag, TEV cleavage site (Viva Biotech Ltd); final assay concentration 10 nM; • KRAS (G13D) 1-169, N-terminal 6His-tag for purification, cleaved off, C-terminal avi-tag, biotinylated, TEV cleavage site, mutation: C118S, GDP loaded (in house); final assay concentration 10 nM and SOS1 564-1049, N-terminal 229 GST-tag, TEV cleavage site (Viva Biotech Ltd); final assay concentration 10 nM; • KRAS (WT) 1-169, N-terminal 6His-tag for purification, cleaved off, C-terminal avi-tag, biotinylated, TEV cleavage site, mutation: C118S, GDP loaded (in house); final assay concentration 10 nM and SOS1 564-1049, N-terminal 229 GST-tag, TEV cleavage site (Viva Biotech Ltd); final assay concentration 10 nM.
Test compounds dissolved in DMSO are dispensed onto assay plates (Proxiplate 384 PLUS, white, PerkinElmer; 6008289) using an Access Labcyte Workstation with the Labcyte Echo 55×. For the chosen highest assay concentration of 100 μM, 150 nL of compound solution are transferred from a 10 mM DMSO compound stock solution. A series of eleven fivefold dilutions per compound are transferred to the assay plate, compound dilutions are tested in duplicates. DMSO are added as backfill to a total volume of 150 nL.
The assays run on a fully automated robotic system in a darkened room below 100 Lux. To 150 nl of compound dilution 10 μl of a mix including KRAS mutant protein, SOS1 (final assay concentrations see above) and GDP nucleotide (Sigma G7127; final assay concentration 10 μM) in assay buffer (1×PBS, 0.1% BSA, 0.05% Tween 20) are added into columns 1-24.
After 30 minutes incubation time 5 μl of Alpha Screen bead mix in assay buffer are added into columns 1-23. Bead mix consists of AlphaLISA Glutathione Acceptor Beads (PerkinElmer, Cat No AL109) and AlphaScreen Streptavidin Donor Beads (PerkinElmer Cat No 6760002) in assay buffer at a final assay concentration of 10 μg/ml each.
Plates are kept at room temperature in a darkened incubator. After an additional 60 minutes incubation time the signal is measured in a PerkinElmer Envision HTS Multilabel Reader using the AlphaScreen specs from PerkinElmer.
Each plate contains up to 16 wells of a negative control depending on the dilution procedure (platewise or serial) (DMSO instead of test compound; with KRAS mutant::SOS1 GDP mix and bead mix; column 23) and 16 wells of a positive control (DMSO instead of test compound; with KRAS mutant::SOS1 GDP mix w/o bead mix; column 24).
As internal control known inhibitors of KRAS mutant::SOS1 interaction can be measured on each compound plate. […]

SAS cells = test: SAS CTG proliferation assay (120 h) (HNSCC, wt amplified); assay type: cell-based
Protocol: SAS CTG Proliferation Assay (120 h) (HNSCC, Wt Amplified)
SAS cells (JCRB0260) are dispensed into 384-well plates, flat and clear bottom (Greiner, PNr. 781091) at a density of 300 cells per well in 60 μL DMEM:F12 (Gibco 31330-038)+10% Fetal Calf Serum (HyClone, PNr.: SH30084.03) and incubated at 37° C. in a CO2 incubator overnight. The next day, compounds (10 mM stock in DMSO) are added with the ECHO acoustic liquid handler system (Beckman Coulter), including DMSO controls. Plates are incubated for 120 h, and cell viability is measured using CellTiter-Glo luminescent cell viability reagent (Promega product code G7570). Viability (stated as percent of control) is defined as relative luminescence units RLU of each well divided by the RLU of cells in DMSO controls. IC50 values are determined from viability measurements by non-linear regression using a four-parameter model.

Sequence of KRAS (G12C)::SOS1 (P01116 other isoform, or with tags, fused parts or gaps G12C/C51S/C80L/C118S): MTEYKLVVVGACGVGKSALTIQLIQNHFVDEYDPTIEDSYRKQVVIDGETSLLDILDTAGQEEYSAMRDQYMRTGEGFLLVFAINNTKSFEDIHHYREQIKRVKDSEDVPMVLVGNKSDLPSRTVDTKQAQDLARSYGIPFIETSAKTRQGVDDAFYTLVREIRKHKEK

Structure (SMILES) | IC50 (KRAS (G12C)::SOS1) [nM] | IC50 (SAS cells) [nM]
C[C@H](Oc1cc(N2CC[C@H](N(C)C)C2)nc(-c2onc3c2CCC[C@@]32CCCc3sc(N)c(C#N)c32)n1)[C@@H]1CCCN1C [I-11] | 7 | 651
C[C@H](Oc1cc(N2CCC[C@H](O)C2)nc(-c2noc3c2CCC[C@@]32CCCc3sc(N)c(C#N)c32)n1)[C@@H]1CCCN1C [II-57] | 2 | 54
C[C@H](Oc1cc(N2C[C@H](C)NC3(CC3)C2)nc(-c2onc3c2CCC[C@@]32CCCc3sc(N)c(C#N)c32)n1)[C@@H]1CCCN1C [I-8] | 4 | 131
C[C@H](Oc1cc(-n2cnc3cccnc32)nc(-c2noc3c2CCC[C@@]32CCCc3sc(N)c(C#N)c32)n1)[C@@H]1CCCN1C [II-65] | 4 | 173
C[C@H](Oc1cc(N2CC[C@H](N(C)C)C2)nc(-c2noc3c2CCC[C@@]32CCCc3sc(N)c(C#N)c32)n1)[C@@H]1CCCN1C [II-49] | 9 | 1180
C[C@H](Oc1cc(N2CCC[C@@H](O)C2)nc(-c2noc3c2CCC[C@@]32CCCc3sc(N)c(C#N)c32)n1)[C@@H]1CCCN1C [II-59] | 2 | 31
C[C@H](Oc1cc(N2CCN3CCC3C2)nc(-c2onc3c2CCC[C@@]32CCCc3sc(N)c(C#N)c32)n1)[C@@H]1CCCN1C (stereo partly drawn) [I-9] | 5 | 20200
C[C@H](Oc1cc(N2CCN(C)C2=O)nc(-c2noc3c2CCC[C@@]32CCCc3sc(N)c(C#N)c32)n1)[C@@H]1CCCN1C [II-75] | 2 | 31
C[C@H](Oc1cc(C2=CCOCC2)nc(-c2noc3c2CCC[C@@]32CCCc3sc(N)c(C#N)c32)n1)[C@@H]1CCCN1C [II-67] | 2 | 8
C[C@H](Oc1cc(C2CCOCC2)nc(-c2noc3c2CCC[C@@]32CCCc3sc(N)c(C#N)c32)n1)[C@@H]1CCCN1C [II-76] | 2 | 66
C[C@H](Oc1cc(-n2ccnc2)nc(-c2noc3c2CCC[C@@]32CCCc3sc(N)c(C#N)c32)n1)[C@@H]1CCCN1C [II-69] | 2 | 102
C[C@H](Oc1cc(N2CCN(C)CC2)nc(-c2noc3c2CCC[C@@]32CCCc3sc(N)c(C#N)c32)n1)[C@@H]1CCCN1C [II-55] | 4 | 968
C[C@H](Oc1cc(N2CCNCC23CCOC3)nc(-c2onc3c2CCC[C@@]32CCCc3sc(N)c(C#N)c32)n1)[C@@H]1CCCN1C (stereo partly drawn) [I-10] | 3 | –
C[C@H](Oc1cc(-n2cc3c(n2)CCNC3)nc(-c2noc3c2CCC[C@@]32CCCc3sc(N)c(C#N)c32)n1)[C@@H]1CCCN1C [II-53] | – | 1720

Second part, led by results:

IC50 (KRAS (G12C)::SOS1) [nM] | Structure (SMILES) | IC50 (SAS cells) [nM]
3 | C[C@H](Oc1cc(-c2cn(C3COC3)nn2)nc(-c2noc3c2CCC[C@@]32CCCc3sc(N)c(C#N)c32)n1)[C@@H]1CCCN1C [II-100] | 3180
3 | C[C@H](Oc1cc(-c2ccn(-c3ccccc3)n2)nc(-c2noc3c2CCC[C@@]32CCCc3sc(N)c(C#N)c32)n1)[C@@H]1CCCN1C [II-89] | 246
2 | C[C@H](Oc1cc(-c2ccn3ncnc3c2)nc(-c2noc3c2CCC[C@@]32CCCc3sc(N)c(C#N)c32)n1)[C@@H]1CCCN1C [II-104] | 114
2 | C[C@H](Oc1cc(-c2ccn(C3CC3)n2)nc(-c2noc3c2CCC[C@@]32CCCc3sc(N)c(C#N)c32)n1)[C@@H]1CCCN1C [II-98] | 30
2 | COC(=O)c1ccc(-c2cc(O[C@@H](C)[C@@H]3CCCN3C)nc(-c3noc4c3CCC[C@@]43CCCc4sc(N)c(C#N)c43)n2)o1 [II-114] | 28
7 | C[C@H](Oc1cc(N2CCc3cccnc32)nc(-c2noc3c2CCC[C@@]32CCCc3sc(N)c(C#N)c32)n1)[C@@H]1CCCN1C [II-90] | 4390
2 | C[C@H](Oc1cc(-c2ccc(N)nc2)nc(-c2noc3c2CCC[C@@]32CCCc3sc(N)c(C#N)c32)n1)[C@@H]1CCCN1C [II-101] | 130
2 | C[C@H](Oc1cc(-n2ccnc2)nc(-c2noc3c2CCC[C@@]32CCCc3sc(N)c(C#N)c32)n1)[C@@H]1C[C@@H](F)CN1C [II-120] | 488
2 | COCc1cn(-c2cc(O[C@@H](C)[C@@H]3CCCN3C)nc(-c3noc4c3CCC[C@@]43CCCc4sc(N)c(C#N)c43)n2)nn1 [II-121] | 560
1 | C[C@H](Oc1cc([C@@H]2CCOC2)nc(-c2noc3c2CCC[C@@]32CCCc3sc(N)c(C#N)c32)n1)[C@@H]1CCCN1C [II-94] | 82
5 | C[C@H](Oc1cc(-c2ccn(C3COC3)n2)nc(-c2noc3c2CCC[C@@]32CCCc3sc(N)c(C#N)c32)n1)[C@@H]1C[C@H](F)CN1C [II-83] | 18
2 | C[C@H](Oc1cc(-c2cnn(C)n2)nc(-c2noc3c2CCC[C@@]32CCCc3sc(N)c(C#N)c32)n1)[C@@H]1CCCN1C [II-86] | 502
3 | C[C@H](Oc1cc(N2CCC(C#N)C2)nc(-c2noc3c2CCC[C@@]32CCCc3sc(N)c(C#N)c32)n1)[C@@H]1CCCN1C (stereo partly drawn) [II-99] | 88
2 | C[C@H](Oc1cc(-n2ccc(-c3ccccn3)n2)nc(-c2noc3c2CCC[C@@]32CCCc3sc(N)c(C#N)c32)n1)[C@@H]1CCCN1C [II-119] | 39
4 | Cc1cn(-c2cc(O[C@@H](C)[C@@H]3CCCN3C)nc(-c3noc4c3CCC[C@@]43CCCc4sc(N)c(C#N)c43)n2)nn1 [II-106] | 96
2 | C[C@H](Oc1cc([C@H]2CCOC2)nc(-c2noc3c2CCC[C@@]32CCCc3sc(N)c(C#N)c32)n1)[C@@H]1CCCN1C [II-88] | 2220
2 | C[C@H](Oc1cc(N2CCOC3(COC3)C2)nc(-c2noc3c2CCC[C@@]32CCCc3sc(N)c(C#N)c32)n1)[C@@H]1CCCN1C [II-77] | 152
3 | C[C@H](Oc1cc(-c2ccn(-c3ccsc3)n2)nc(-c2noc3c2CCC[C@@]32CCCc3sc(N)c(C#N)c32)n1)[C@@H]1CCCN1C [II-84] | 52
3 | C[C@H](Oc1cc(-c2cncnc2)nc(-c2noc3c2CCC[C@@]32CCCc3sc(N)c(C#N)c32)n1)[C@@H]1CCCN1C [II-82] | 990
2 | Cc1nc(-c2cc(O[C@@H](C)[C@@H]3CCCN3C)nc(-c3noc4c3CCC[C@@]43CCCc4sc(N)c(C#N)c43)n2)cs1 [II-103] | –
8 | C[C@H](Oc1cc(-c2cn(C3CCOCC3)nn2)nc(-c2noc3c2CCC[C@@]32CCCc3sc(N)c(C#N)c32)n1)[C@@H]1CCCN1C [II-115] | –
